Assay results as given in patent US9487566B2, “Method for purifying protein” (KYOWA HAKKO KIRIN CO., LTD, priority 2011, dated 2016).

Key:
neuraminidase [1] = test: Capillary electrophoresis of Erythropoietin from culture fluid held with amino acids (bound sialic acids); format: biochemical; conditions: 1 mol/L amino acid solution mixed in equivalent amount, 25° C. for 7 days, compared with purified water / initiation
Method: Purified water, 1 mol/L alanine solution, 1 mol/L arginine solution, or 1 mol/L glycine solution was mixed with the culture fluid containing Erythropoietin in an equivalent amount, respectively and then held at 25° C. for 7 days. Thereafter, Erythropoietin was purified using an anti-Erythropoietin antibody-immobilized affinity chromatography column, and the number of sialic acids binding to Erythropoietin was measured by capillary electrophoresis [Biol. Pharm. Bull. 33(9) 1596-1599 (2010)].

protease = conditions: glycine 0.5 mol/L or arginine 0.4 mol/L final, 25° C. for 6 days
neuraminidase [2] = test: Neuraminidase activity after addition of amino acids to Antithrombin eluate (enzyme assay); format: biochemical, CHO cell
Method: The Antithrombin concentration and the neuraminidase activity in the washing fraction before elution and in a particular range of eluate were measured by reversed-phase HPLC method [J. Chromatography B, 662, 209 (1994)] and enzyme assay [Glycobiology, 3, 455 (1993)], respectively.
Arginine hydrochloride or glycine of a final concentration of 0 to 500 mmol/L was added to the aqueous solution containing Antithrombin obtained in the elution process of Comparative Example 1. The neuraminidase activity in each solution was measured in the same manner as in Example 1.

[3] = test system: Neuraminidase (manufactured by Nacalai Tesque); conditions: final concentration 1.0 mol/L, neuraminidase 0.0005 U/mL, 37° C. for 3 hours
Method: As a control group, purified water was added in the same amount as the neuraminidase. Glycine was added at a final concentration of 1.0 mol/L, or purified water as a control, and held at 37° C. for 3 hours.

[4] = Storage stability of purified Protein S by SDS-PAGE; format: physicochemical; conditions: held at 37° C. for 3 days vs frozen at −20° C.
Method: The Protein S-Example 16 and the Protein S-Comparative Example 3 were held at 37° C. for 3 days, or they were also frozen at −20° C., respectively.

| Molecule | number of sialic acids binding to Erythropoietin after holding (neuraminidase [1]) | conversion of Protein S into the cleaved form (protease) | relative neuraminidase activity (activity at 0 mmol/L amino acid regarded as 1.0) (neuraminidase [2]; addition of 100 mmol/L) | change on storage (cleaved form, SDS-PAGE) [4] | also measured |
| --- | --- | --- | --- | --- | --- |
| C[C@H](N)C(=O)O [alanine] | the number of bound sialic acids was maintained |  |  |  |  |
| N=C(N)NCCC[C@H](N)C(=O)O [arginine] | the number of bound sialic acids was equivalent | conversion of Protein S into the cleaved form was inhibited | about 0.2 |  | relative neuraminidase activity (activity at 0 mmol/L amino acid regarded as 1.0) (neuraminidase [2]; addition of 200 mmol/L or more, below the detection limit): 0 |
| NCC(=O)O [glycine] | the number of bound sialic acids was maintained | conversion of Protein S into the cleaved form was inhibited | about 0.2 |  | relative neuraminidase activity (activity at 0 mmol/L amino acid regarded as 1.0) (neuraminidase [2]; addition of 300 mmol/L or more, below the detection limit): 0; electrophoretic profile of Protein S (basic shift by loss of sialic acid) [3]: major bands were found in a more acidic region than the band of purified water-added one |
| Protein S-Comparative Example 3: Protein S obtained by the method described in Comparative Example 3 (purified without using the mixed mode carrier) |  |  |  | the cleaved form was increased |  |
| Protein S-Example 16: Protein S obtained by the method described in Example 16 (purified using the mixed mode carrier) |  |  |  | no change |  |
